# Patent US20240182413A1, “INSECTICIDAL COMPOUNDS” (Pluton Biosciences, Inc., priority 2022, published 2024)
# Several values for one entry are separate records, joined by “and”; a condition that tells them apart may be missing. Equal values may be shown once. Read-outs that look alike come from different tables or passages of the source.
# Legend:
# Aedes aegypti larvae = assay: Aedes aegypti killing assay (larval bioassay, two-fold dilution series); format: in vivo; conditions: Aedes aegypti, 72 h
# Procedure: Insect killing assays. Each compound was dissolved in dimethyl sulfoxide (DMSO). Killing dose curves were constructed for each compound by producing a two-fold dilution series for each compound (e.g., comprising approximately 20 serial dilutions of a stock). Dilutions were made in sterile nutrient yeast extract salt medium (NYSM) broth. The NYSM contained 8 g/L nutrient broth powder, 0.5 g/L yeast extract, 1 mM MgCl2, 700 μM CaCl2, and 50 μM MnCl2 in water. The two-fold dilution series were tested in a killing bioassay as described below. Data were collected to construct a dose curve and determine the half-maximal lethal concentration (LC50) value.
# Bioassays were performed using second or third instar Aedes aegypti larvae, with biological replication. Ae. aegpyti larvae were purchased from Benzon Research, Inc. (Carlisle, PA). Larvae were washed with sterile water before transfer to 24-well assay plates containing 1 mL of sterile water in each well. Each well contained 5 larvae. The final DMSO concentration in each assay well was 1%. Larval mortality was scored for each well at 24-hour timepoints after application. […] In Table 1, mean mortalities and standard deviations were calculated from at least three independent biological replicates. […] LC50 values were calculated using GraphPad Prism software.
# [1] = test system: Spodoptera frugiperda (fall armyworm) first instar larvae; assay: Spodoptera frugiperda killing assay (diet-surface overlay); format: in vivo; conditions: for LC50: Spodoptera frugiperda
# Procedure: Insect killing assays. Each compound was dissolved in dimethyl sulfoxide (DMSO). Killing dose curves were constructed for each compound by producing a two-fold dilution series of the compound (e.g., comprising approximately 16 serial dilutions of a stock for 3,3′-diindolylmethane and 3-((1H-Indol-2-yl)methyl)-1H-indole and comprising approximately 12 serial dilutions of a stock for 3,3′-diindolyl and 3,3′-(pyridin-4-ylmethylene)bis(1H-indole)). Dilutions were made in sterile NYSM broth as described above. The two-fold dilution series were tested in a killing bioassay as described below. Data were collected to construct a dose curve and determine the half-maximal lethal concentration (LC50) value.
# Bioassays were performed using first instar larvae of the Lepidopteran species Spodoptera frugiperda (fall armyworm), with an N=16 for each concentration of compound tested. S. frugiperda larvae were purchased from Benzon Research, Inc. (Carlisle, PA). A diet-surface overlay format was used in which 1 milliliter of standard lepidopteran diet was placed in each well. One hundred microliters of sample were pipetted into each well and allowed to dry. A DMSO control was included with each set of samples.
# During the development of embodiments of the technology described herein, experiments were conducted to test the killing of arundine against a panel of 11 insect species. […] Briefly, arundine was dissolved in dimethyl sulfoxide (DMSO). Killing dose curves were constructed by producing a two-fold dilution series of arundine. Dilutions were made in sterile NYSM as described. The two-fold dilution series were tested in a killing bioassay performed using first instar larvae of the species listed in Table 4, with an N=16 for each concentration of compound tested. A diet-surface overlay format was used in which 1 milliliter of standard lepidopteran diet was placed in each well. One hundred microliters of sample were pipetted into each well and allowed to dry. A DMSO control was included with each set of samples. […] Data were collected to construct a dose curve and determine the half-maximal lethal concentration (LC50) value.
# Aedes aegypti = conditions: previously shown; cited from earlier work
# [2] = test system: fall armyworm (Spodoptera frugiperda); conditions: after seven days of exposure; cited from earlier work
# [3] = test system: S. eridania (Southern armyworm) first instar larvae; assay: Insect panel killing assay (diet-surface overlay); format: in vivo
# Procedure: (§1) During the development of embodiments of the technology described herein, experiments were conducted to test the killing of arundine against a panel of 11 insect species. Killing assays were performed as described in Example 2 for Spodoptera frugiperda. Briefly, arundine was dissolved in dimethyl sulfoxide (DMSO). Killing dose curves were constructed by producing a two-fold dilution series of arundine. Dilutions were made in sterile NYSM as described. The two-fold dilution series were tested in a killing bioassay performed using first instar larvae of the species listed in Table 4, with an N=16 for each concentration of compound tested. A diet-surface overlay format was used in which 1 milliliter of standard lepidopteran diet was placed in each well. One hundred microliters of sample were pipetted into each well and allowed to dry. A DMSO control was included with each set of samples. Spinosad (MilliporeSigma, catalog #33706) was used as a positive control for insecticidal activity, and water was used as an additional negative control. Data were collected to construct a dose curve and determine the half-maximal lethal concentration (LC50) value. In Table 4, % of insects killed is provided in the table cells for the concentrations listed at the top (2500, 625, 156, and 0 μg/mL arundine).
# [4] = test system: D. saccharalis (Sugarcane borer) first instar larvae; assay: Insect panel killing assay (diet-surface overlay); format: in vivo
# Procedure: as §1
# [5] = test system: S. exigua (Beet armyworm) first instar larvae; assay: Insect panel killing assay (diet-surface overlay); format: in vivo
# Procedure: as §1
# [6] = test system: C. pomonella (Codling moth) first instar larvae; assay: Insect panel killing assay (diet-surface overlay); format: in vivo
# Procedure: as §1
# [7] = test system: H. zea (Corn earworm) first instar larvae; assay: Insect panel killing assay (diet-surface overlay); format: in vivo
# Procedure: as §1
# [8] = test system: T. ni (Cabbage looper) first instar larvae; assay: Insect panel killing assay (diet-surface overlay); format: in vivo
# Procedure: as §1
# [9] = test system: A. gemmatalis (Velvetbean caterpillar) first instar larvae; assay: Insect panel killing assay (diet-surface overlay); format: in vivo
# Procedure: as §1
# [10] = test system: H. virescens (Tobacco budworm) first instar larvae; assay: Insect panel killing assay (diet-surface overlay); format: in vivo
# Procedure: as §1
# [11] = test system: C. includens (Soybean looper) first instar larvae; assay: Insect panel killing assay (diet-surface overlay); format: in vivo
# Procedure: as §1
# [12] = test system: D. grandiosella (Southwestern corn borer) first instar larvae; assay: Insect panel killing assay (diet-surface overlay); format: in vivo
# Procedure: as §1
# Vip3A resistant FAW = assay: Killing of Vip3A resistant fall armyworm; format: in vivo, Spodoptera frugiperda; conditions: 1000 ppm BIM compound, 20 μl on diet surface, 5-7 days
# Procedure: (§2) During the development of embodiments of the technology provided herein, experiments were conducted to test the killing potency of arundine-derived BIM compounds against strains of fall armyworm (FAW) that are resistant to Bacillus thuringiensis (Bt) insecticidal proteins (e.g., Cry1Fa and Vip3A). Susceptible FAW (Spodoptera frugiperda) was obtained from Benzon Research Inc, Lancaster, PA. Cry1Fa resistant FAW originating from Puerto Rico was reared in a facility by Genective (Weldon, IL). Vip3A resistant FAW originating from southern US was reared in a facility by Genective (Weldon, IL).
# (§3) FAW eggs were incubated at approximately 26° C. at 50% relative humidity until eclosion (approximately 3 days) and the hatch was timed to within 12 hours of infesting the diet plates. BIM compounds were obtained from frozen stocks, thawed, suspended in 5% DMSO along with NYSM buffer to provide a solution of 2000 ppm BIM compound in a total volume of 1.0 ml, and stored at −20° C. For testing, a single tube of each BIM compound sample was thawed at 4° C. NYSM buffer was warmed to room temperature. A volume of 750 μl. NYSM buffer was added to 750 μl from each 1.0-ml volume to prepare samples of 1.5 ml BIM compound at 1000 ppm for testing. A total of three BIM preparations per BIM molecule were prepared and tested for killing potency. Compounds tested were BIM-1, 11, 25, 26, 28, 29, 30, 32, 34. A solution of 5% DMSO in NYSM buffer was used as a negative control.
# A standard commercially available semi-solid lepidopteran diet was prepared following manufacturer's instructions (Frontier, multi-species diet). […] LB+Kanamycin (antibiotic) growth media is the negative control for bacterial cultures. […]
# (§4) For each of 3 replicates, 200 μl of diet was prepared in wells of a 96-well plate and the diet plates were warmed to room temperature prior to dispensing samples. […] All bioassays were assessed visually to record larval mortality and growth inhibition.
# Cry1Fa resistant FAW = assay: Killing of Cry1Fa resistant fall armyworm; format: in vivo, Spodoptera frugiperda; conditions: 1000 ppm BIM compound, 20 μl on diet surface; neonates; 5-7 days
# Procedure: as §2, §3
# A standard commercially available semi-solid lepidopteran diet was prepared following manufacturer's instructions (Frontier, multi-species diet). […] LB+Kanamycin (antibiotic) growth media is the negative control for bacterial cultures. Cry1Fa is a positive control prepared as E. coli cells expressing the full-length Cry1Fa protein resuspended in PBS buffer at half the volume of the original growth culture resulting in 2× concentration of cells. Vip3A is a positive control prepared as E. coli whole cell culture expressing Vip3A.
# For each of 3 replicates, 200 μl of diet was prepared in wells of a 96-well plate and the diet plates were warmed to room temperature prior to dispensing samples. After 750 μl NYSM buffer was added to 750 μl from each 1.0-ml volume to prepare samples of 1.5 ml BIM compound at 1000 ppm for testing, BIM solutions were vortexed and 20 μl were dispensed onto the diet surface in each of 16 wells using a repeating pipettor. These steps were repeated for each sample and control for each insect population being tested. BIM compound and control solutions were allowed to absorb into the diet in a biosafety hood until the diet surface was visibly dry. Once dry, wells were sealed with a clear membrane. Two pin holes were poked through the membrane in each well to maintain appropriate humidity level and aeration. Each well was infested with a single neonate larva, and the wells were resealed with perforated membrane to prevent escape. The infested plates were incubated in environmental chambers at 26° C. and 50% relative humidity for 5-7 days. All bioassays were assessed visually to record larval mortality and growth inhibition.
# [13] = test system: fall armyworm (FAW), susceptible and the two resistant varieties (Cry1 and Vip3A); assay: Killing of susceptible and Bt-resistant fall armyworm (strain not specified); format: in vivo, Spodoptera frugiperda; conditions: 1000 ppm BIM compound, 20 μl on diet surface, neonate larvae, at 7 days
# Procedure: as §2
# FAW eggs were incubated at approximately 26° C. at 50% relative humidity until eclosion (approximately 3 days) and the hatch was timed to within 12 hours of infesting the diet plates. BIM compounds were obtained from frozen stocks, thawed, suspended in 5% DMSO along with NYSM buffer to provide a solution of 2000 ppm BIM compound in a total volume of 1.0 ml, and stored at −20° C. For testing, a single tube of each BIM compound sample was thawed at 4° C. NYSM buffer was warmed to room temperature. A volume of 750 μl. […]
# as §4
# [14] = first instar larvae, calculated from killing dose curves FIG. 3D to 3NN, read-out: LD50 (the source's name)
structure (smiles),measurement,setting,value
"c1ccc2[nH]c(Cc3c[nH]c4ccccc34)cc2c1 [3-((1H-indol-2-yl)methyl)-1H-indole, 3-((1H-Indol-2-yl)methyl)-1H-indole]",LC50,Aedes aegypti larvae,5.5 µg/mL and 22.5 µM
same,LC50,"[1]; first instar larvae, N=16 per concentration, representative curve fit",598 µg/mL and 2.4 mM
same,activity against S. frugiperda,[1]; first instar larvae,active
same,activity against Aedes aegypti,Aedes aegypti,active
"c1ccc2c(Cc3c[nH]c4ccccc34)c[nH]c2c1 [Arundine, 3,3′-diindolylmethane]",mortality,[2],greater than 95%
same,% killing,[1]; 156 μg/mL arundine,40%
same,% killing,[1]; 625 μg/mL arundine,63%
same,% killing,[1]; 2500 μg/mL arundine,97%
same,LC50,[1]; [14],1820 µM
same,% killing,[3]; 156 μg/mL arundine,23%
same,% killing,[3]; 625 μg/mL arundine,100%
same,% killing,[3]; 2500 μg/mL arundine,100%
same,% killing,[4]; 156 μg/mL arundine,100%
same,% killing,[4]; 625 μg/mL arundine,100%
same,% killing,[4]; 2500 μg/mL arundine,100%
same,% killing,[5]; 156 μg/mL arundine,72%
same,% killing,[5]; 625 μg/mL arundine,94%
same,% killing,[5]; 2500 μg/mL arundine,72%
same,% killing,[6]; 156 μg/mL arundine,21%
same,% killing,[6]; 625 μg/mL arundine,50%
same,% killing,[6]; 2500 μg/mL arundine,39%
same,% killing,[7]; 156 μg/mL arundine,40%
same,% killing,[7]; 625 μg/mL arundine,50%
same,% killing,[7]; 2500 μg/mL arundine,90%
same,% killing,[8]; 156 μg/mL arundine,41%
same,% killing,[8]; 625 μg/mL arundine,72%
same,% killing,[8]; 2500 μg/mL arundine,93%
same,% killing,[9]; 156 μg/mL arundine,100%
same,% killing,[9]; 625 μg/mL arundine,70%
same,% killing,[9]; 2500 μg/mL arundine,97%
same,% killing,[10]; 156 μg/mL arundine,74%
same,% killing,[10]; 625 μg/mL arundine,74%
same,% killing,[10]; 2500 μg/mL arundine,87%
same,% killing,[11]; 156 μg/mL arundine,27%
same,% killing,[11]; 625 μg/mL arundine,50%
same,% killing,[11]; 2500 μg/mL arundine,80%
same,% killing,[12]; 156 μg/mL arundine,47%
same,% killing,[12]; 625 μg/mL arundine,90%
same,% killing,[12]; 2500 μg/mL arundine,83%
Clc1ccc2c(Cc3c[nH]c4cc(Cl)ccc34)c[nH]c2c1 [BIM-11],LC50,[1]; [14],1180 µM
same,lethality,Vip3A resistant FAW; Vip3A-resistant neonates,100%
Clc1ccc2c(C(c3ccccc3)c3c[nH]c4cc(Cl)ccc34)c[nH]c2c1 [BIM-25],LC50,[1]; [14],504 µM
same,lethality,Vip3A resistant FAW; neonates,strong lethality
same,lethality,Cry1Fa resistant FAW,strong lethality
Clc1ccc2c(C(Cc3ccccc3)c3c[nH]c4cc(Cl)ccc34)c[nH]c2c1 [BIM-26],LC50,[1]; [14],581 µM
same,lethality,[13],60-70%
O=[N+]([O-])c1ccc(C(c2c[nH]c3cc(Cl)ccc23)c2c[nH]c3cc(Cl)ccc23)cc1 [BIM-32],lethality,Vip3A resistant FAW; neonates,strong lethality
same,lethality,Cry1Fa resistant FAW,strong lethality
